Columns and labels:
Test in all cases: β-arrestin based GPCR screen (PathHunter / GPCRmax), agonist mode
Assay type in all cases: cell-based
Parameters in all cases: host or cells: PathHunter cell lines
168 GPCRs [1] = target: 168 GPCRs (Homo sapiens, UniProt O43193); settings: MLNR
Description: (§1) For agonist determination, cells were incubated with sample to induce response. […] Vehicle concentration was 1%.

168 GPCRs [2] = target: 168 GPCRs (Homo sapiens, UniProt O95977)
Description: as §1

168 GPCRs [3] = target: 168 GPCRs (Homo sapiens, UniProt P08172); settings: CHRM2, Agonist
Chain of 168 GPCRs (Homo sapiens, UniProt P08172) (P08172 whole entry): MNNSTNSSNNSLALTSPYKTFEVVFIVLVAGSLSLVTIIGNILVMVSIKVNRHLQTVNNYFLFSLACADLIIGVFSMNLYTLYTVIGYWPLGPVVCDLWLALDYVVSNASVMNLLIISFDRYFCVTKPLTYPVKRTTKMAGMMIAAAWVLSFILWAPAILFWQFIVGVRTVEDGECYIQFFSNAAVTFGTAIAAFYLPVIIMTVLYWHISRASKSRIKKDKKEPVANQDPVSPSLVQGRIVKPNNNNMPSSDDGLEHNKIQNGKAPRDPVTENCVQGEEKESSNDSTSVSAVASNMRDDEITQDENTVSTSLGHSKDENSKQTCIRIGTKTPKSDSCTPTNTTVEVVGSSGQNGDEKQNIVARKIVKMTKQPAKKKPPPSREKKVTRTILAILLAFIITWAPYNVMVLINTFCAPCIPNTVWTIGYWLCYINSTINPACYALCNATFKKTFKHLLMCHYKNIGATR
Description: as §1

168 GPCRs [4] = target: 168 GPCRs (Homo sapiens, UniProt P08913); settings: ADRA2A, Agonist
Description: as §1

168 GPCRs [5] = target: 168 GPCRs (Homo sapiens, UniProt P16473); settings: TSHR(L)
Description: as §1

168 GPCRs [6] = target: 168 GPCRs (Homo sapiens, UniProt P18825); settings: ADRA2C, Agonist
Description: as §1

168 GPCRs [7] = target: 168 GPCRs (Homo sapiens, UniProt P21452)
Chain of 168 GPCRs (Homo sapiens, UniProt P21452) (P21452 whole entry): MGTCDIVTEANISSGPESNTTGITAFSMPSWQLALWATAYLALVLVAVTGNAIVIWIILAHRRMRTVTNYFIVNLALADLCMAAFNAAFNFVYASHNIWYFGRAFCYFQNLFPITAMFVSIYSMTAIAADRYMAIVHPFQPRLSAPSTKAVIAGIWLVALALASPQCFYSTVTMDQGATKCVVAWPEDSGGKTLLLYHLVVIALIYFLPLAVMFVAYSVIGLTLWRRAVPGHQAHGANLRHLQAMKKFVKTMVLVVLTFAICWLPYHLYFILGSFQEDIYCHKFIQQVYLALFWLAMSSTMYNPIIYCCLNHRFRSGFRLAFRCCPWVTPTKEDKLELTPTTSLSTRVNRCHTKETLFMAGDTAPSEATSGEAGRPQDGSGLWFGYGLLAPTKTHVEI
Description: as §1

168 GPCRs [8] = target: 168 GPCRs (Homo sapiens, UniProt P25025)
Description: as §1

168 GPCRs [9] = target: 168 GPCRs (Homo sapiens, UniProt P25116); settings: F2R
Chain of 168 GPCRs (Homo sapiens, UniProt P25116) (P25116 22-425): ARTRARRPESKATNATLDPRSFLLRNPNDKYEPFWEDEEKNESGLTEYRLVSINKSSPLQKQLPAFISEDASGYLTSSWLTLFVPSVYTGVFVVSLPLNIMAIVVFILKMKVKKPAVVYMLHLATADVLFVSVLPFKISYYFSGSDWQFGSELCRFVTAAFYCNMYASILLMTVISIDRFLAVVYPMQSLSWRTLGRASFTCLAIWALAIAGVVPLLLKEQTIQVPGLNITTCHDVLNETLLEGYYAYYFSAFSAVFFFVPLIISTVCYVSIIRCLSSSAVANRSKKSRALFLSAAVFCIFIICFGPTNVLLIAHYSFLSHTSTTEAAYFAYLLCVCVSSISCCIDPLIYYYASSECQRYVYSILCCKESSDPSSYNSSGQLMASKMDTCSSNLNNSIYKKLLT
Description: as §1

168 GPCRs [10] = target: 168 GPCRs (Homo sapiens, UniProt P28336); settings: NMBR
Chain of 168 GPCRs (Homo sapiens, UniProt P28336) (P28336 whole entry): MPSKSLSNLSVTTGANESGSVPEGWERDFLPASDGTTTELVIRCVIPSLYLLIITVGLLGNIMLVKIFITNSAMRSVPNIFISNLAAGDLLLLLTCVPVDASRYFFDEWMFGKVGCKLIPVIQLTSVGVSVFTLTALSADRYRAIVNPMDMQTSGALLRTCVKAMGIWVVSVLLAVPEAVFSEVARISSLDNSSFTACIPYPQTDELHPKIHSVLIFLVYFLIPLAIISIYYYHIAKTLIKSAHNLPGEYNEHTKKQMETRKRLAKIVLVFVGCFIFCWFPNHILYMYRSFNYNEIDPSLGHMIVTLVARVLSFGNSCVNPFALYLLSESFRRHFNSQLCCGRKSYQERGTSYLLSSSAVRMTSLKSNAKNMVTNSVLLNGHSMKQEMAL
Description: as §1

168 GPCRs [11] = target: 168 GPCRs (Homo sapiens, UniProt P30556); settings: AGTR1, Agonist
Description: as §1

168 GPCRs [12] = target: 168 GPCRs (Homo sapiens, UniProt P30989)
Chain of 168 GPCRs (Homo sapiens, UniProt P30989) (P30989 whole entry): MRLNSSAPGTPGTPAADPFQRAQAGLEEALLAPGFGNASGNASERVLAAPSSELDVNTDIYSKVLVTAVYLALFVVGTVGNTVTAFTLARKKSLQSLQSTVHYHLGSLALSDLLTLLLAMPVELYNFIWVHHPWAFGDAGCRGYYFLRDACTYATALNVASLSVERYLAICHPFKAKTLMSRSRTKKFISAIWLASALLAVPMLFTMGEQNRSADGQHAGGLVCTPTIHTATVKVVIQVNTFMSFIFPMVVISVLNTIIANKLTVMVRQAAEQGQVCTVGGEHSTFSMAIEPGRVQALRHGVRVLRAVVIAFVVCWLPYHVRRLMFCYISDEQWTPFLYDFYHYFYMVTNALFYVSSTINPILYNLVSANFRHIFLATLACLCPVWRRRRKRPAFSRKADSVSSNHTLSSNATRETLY
Description: as §1

168 GPCRs [13] = target: 168 GPCRs (Homo sapiens, UniProt P32249)
Chain of 168 GPCRs (Homo sapiens, UniProt P32249) (P32249 whole entry): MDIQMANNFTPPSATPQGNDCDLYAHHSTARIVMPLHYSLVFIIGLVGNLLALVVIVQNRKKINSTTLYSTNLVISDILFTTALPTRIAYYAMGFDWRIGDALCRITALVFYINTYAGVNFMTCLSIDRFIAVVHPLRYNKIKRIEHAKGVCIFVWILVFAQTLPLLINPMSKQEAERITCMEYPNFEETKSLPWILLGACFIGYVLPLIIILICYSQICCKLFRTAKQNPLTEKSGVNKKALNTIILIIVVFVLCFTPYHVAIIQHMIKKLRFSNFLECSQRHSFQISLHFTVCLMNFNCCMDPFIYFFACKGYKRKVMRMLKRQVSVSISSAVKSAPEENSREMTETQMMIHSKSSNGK
Description: as §1

168 GPCRs [14] = target: 168 GPCRs (Homo sapiens, UniProt P35346)
Chain of 168 GPCRs (Homo sapiens, UniProt P35346) (P35346 whole entry): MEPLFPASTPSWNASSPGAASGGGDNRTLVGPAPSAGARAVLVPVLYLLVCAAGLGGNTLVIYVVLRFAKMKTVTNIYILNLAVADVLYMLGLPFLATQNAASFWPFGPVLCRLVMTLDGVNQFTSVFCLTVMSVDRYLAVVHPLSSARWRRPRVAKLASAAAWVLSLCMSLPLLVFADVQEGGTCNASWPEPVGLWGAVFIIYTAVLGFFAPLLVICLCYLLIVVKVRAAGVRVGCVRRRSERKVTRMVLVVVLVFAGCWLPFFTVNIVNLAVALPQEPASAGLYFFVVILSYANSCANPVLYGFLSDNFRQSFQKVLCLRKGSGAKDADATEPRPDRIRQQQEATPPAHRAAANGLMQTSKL
Description: as §1

168 GPCRs [15] = target: 168 GPCRs (Homo sapiens, UniProt P35414); settings: AGTRL1, Agonist
Chain of 168 GPCRs (Homo sapiens, UniProt P35414) (P35414 whole entry): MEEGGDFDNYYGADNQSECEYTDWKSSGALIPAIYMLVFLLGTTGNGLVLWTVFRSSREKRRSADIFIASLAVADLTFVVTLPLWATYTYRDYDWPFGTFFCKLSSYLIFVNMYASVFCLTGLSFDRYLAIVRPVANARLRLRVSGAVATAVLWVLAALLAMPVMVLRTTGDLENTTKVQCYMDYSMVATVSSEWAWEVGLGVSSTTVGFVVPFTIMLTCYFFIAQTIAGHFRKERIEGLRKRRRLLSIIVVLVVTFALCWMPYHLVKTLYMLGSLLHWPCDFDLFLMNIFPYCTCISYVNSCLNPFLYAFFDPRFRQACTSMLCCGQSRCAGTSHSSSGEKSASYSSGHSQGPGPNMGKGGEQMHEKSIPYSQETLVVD
Description: as §1

168 GPCRs [16] = target: 168 GPCRs (Homo sapiens, UniProt P35462)
Description: as §1

168 GPCRs [17] = target: 168 GPCRs (Homo sapiens, UniProt P43116)
Description: as §1

168 GPCRs [18] = target: 168 GPCRs (Homo sapiens, UniProt P48145)
Chain of 168 GPCRs (Homo sapiens, UniProt P48145) (P48145 whole entry): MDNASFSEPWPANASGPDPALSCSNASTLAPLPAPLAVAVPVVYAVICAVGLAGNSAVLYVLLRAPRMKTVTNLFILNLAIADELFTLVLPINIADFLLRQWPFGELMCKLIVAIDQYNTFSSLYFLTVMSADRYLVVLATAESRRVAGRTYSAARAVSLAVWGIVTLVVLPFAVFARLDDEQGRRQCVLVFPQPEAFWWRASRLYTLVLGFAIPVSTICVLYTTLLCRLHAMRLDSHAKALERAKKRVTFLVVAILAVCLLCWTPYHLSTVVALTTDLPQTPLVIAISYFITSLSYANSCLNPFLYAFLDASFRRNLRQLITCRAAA
Description: as §1

168 GPCRs [19] = target: 168 GPCRs (Homo sapiens, UniProt P49683); settings: PRLHR
Description: as §1

168 GPCRs [20] = target: 168 GPCRs (Homo sapiens, UniProt P51677); settings: CCR3, Agonist
Chain of 168 GPCRs (Homo sapiens, UniProt P51677) (P51677 whole entry): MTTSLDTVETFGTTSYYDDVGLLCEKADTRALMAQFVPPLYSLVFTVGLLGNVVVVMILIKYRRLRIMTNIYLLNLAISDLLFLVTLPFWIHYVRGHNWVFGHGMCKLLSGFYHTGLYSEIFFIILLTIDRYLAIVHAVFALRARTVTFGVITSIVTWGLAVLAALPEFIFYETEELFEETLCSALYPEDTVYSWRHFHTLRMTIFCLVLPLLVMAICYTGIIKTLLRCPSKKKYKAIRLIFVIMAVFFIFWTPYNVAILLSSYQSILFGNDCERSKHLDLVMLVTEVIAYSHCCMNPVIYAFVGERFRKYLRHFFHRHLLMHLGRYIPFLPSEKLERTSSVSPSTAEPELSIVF
Description: as §1

168 GPCRs [21] = target: 168 GPCRs (Homo sapiens, UniProt P51681); settings: CCR5, CCR5, Agonist
Description: as §1

168 GPCRs [22] = target: 168 GPCRs (Homo sapiens, UniProt Q03431)
Description: as §1

168 GPCRs [23] = target: 168 GPCRs (Homo sapiens, UniProt Q969V1)
Description: as §1

Chain of 168 GPCRs (Homo sapiens, UniProt O43193) (O43193 whole entry): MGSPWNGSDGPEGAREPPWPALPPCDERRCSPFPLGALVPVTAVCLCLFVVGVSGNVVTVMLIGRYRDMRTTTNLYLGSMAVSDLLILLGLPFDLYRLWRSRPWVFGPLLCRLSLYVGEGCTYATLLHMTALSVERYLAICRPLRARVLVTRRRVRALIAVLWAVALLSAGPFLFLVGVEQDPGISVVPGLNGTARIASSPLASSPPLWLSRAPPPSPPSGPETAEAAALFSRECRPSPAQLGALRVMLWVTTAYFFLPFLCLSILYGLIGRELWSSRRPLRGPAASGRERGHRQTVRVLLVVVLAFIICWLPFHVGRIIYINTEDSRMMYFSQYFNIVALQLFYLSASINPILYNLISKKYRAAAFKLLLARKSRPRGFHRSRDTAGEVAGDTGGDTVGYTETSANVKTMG
Chain of 168 GPCRs (Homo sapiens, UniProt O95977) (O95977 whole entry): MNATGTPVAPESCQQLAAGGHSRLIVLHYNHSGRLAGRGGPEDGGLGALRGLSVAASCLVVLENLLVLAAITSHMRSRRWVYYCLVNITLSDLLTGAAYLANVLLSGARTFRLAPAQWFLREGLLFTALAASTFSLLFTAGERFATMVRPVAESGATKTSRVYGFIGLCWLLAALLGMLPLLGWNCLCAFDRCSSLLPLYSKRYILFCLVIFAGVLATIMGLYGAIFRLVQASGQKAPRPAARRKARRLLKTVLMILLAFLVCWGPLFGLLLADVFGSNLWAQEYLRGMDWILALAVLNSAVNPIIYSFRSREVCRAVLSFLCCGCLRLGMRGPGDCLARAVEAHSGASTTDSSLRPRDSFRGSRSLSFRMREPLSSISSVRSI

## CNC(C)C(=O)c1ccc2c(c1)OCO2 (stereo not shown) [methylone, 3,4-methylenedioxy-N-methylcathinone]
168 GPCRs [1]; Agonist mode, 10 uM
  activity at 10 µM: -1%
168 GPCRs [1]; Agonist, 1 uM
  activity at 1 µM: -1.5%
168 GPCRs [2]; EDG6, Agonist mode, 10 uM
  activity at 10 µM: 0.3%
168 GPCRs [2]; EDG6, Agonist, 1 uM
  activity at 1 µM: -1.7%
168 GPCRs [3]; 1 uM
  activity at 1 µM: -0.2%
168 GPCRs [3]; 10 uM
  activity at 10 µM: 0.2%
168 GPCRs [4]; 1 uM
  activity at 1 µM: -3.8%
168 GPCRs [4]; 10 uM
  activity at 10 µM: -3.8%
168 GPCRs [5]; Agonist mode, 10 uM
  activity at 10 µM: 0.7%
168 GPCRs [5]; Agonist, 1 uM
  activity at 1 µM: -1.2%
168 GPCRs [6]; 1 uM
  activity at 1 µM: -2.5%
168 GPCRs [6]; 10 uM
  activity at 10 µM: 0.1%
168 GPCRs [7]; TACR2, Agonist mode, 10 uM
  activity at 10 µM: -3.3%
168 GPCRs [7]; TACR2, Agonist, 1 uM
  activity at 1 µM: -1.9%
168 GPCRs [8]; CXCR2, Agonist mode, 10 uM
  activity at 10 µM: 2.6%
168 GPCRs [8]; CXCR2, Agonist, 1 uM
  activity at 1 µM: -0.2%
168 GPCRs [9]; Agonist mode, 10 uM
  activity at 10 µM: 0.2%
168 GPCRs [9]; Agonist, 1 uM
  activity at 1 µM: 2.5%
168 GPCRs [10]; Agonist mode, 10 uM
  activity at 10 µM: 1.2%
168 GPCRs [10]; Agonist, 1 uM
  activity at 1 µM: 1.1%
168 GPCRs [11]; 1 uM
  activity at 1 µM: -2.8%
168 GPCRs [11]; 10 uM
  activity at 10 µM: -1%
168 GPCRs [12]; NTSR1, Agonist mode, 10 uM
  activity at 10 µM: -3.5%
168 GPCRs [12]; NTSR1, Agonist, 1 uM
  activity at 1 µM: -4.7%
168 GPCRs [13]; EBI2, Agonist mode, 10 uM
  activity at 10 µM: 0.1%
168 GPCRs [13]; EBI2, Agonist, 1 uM
  activity at 1 µM: 0.5%
168 GPCRs [14]; SSTR5, Agonist mode, 10 uM
  activity at 10 µM: -1.3%
168 GPCRs [14]; SSTR5, Agonist, 1 uM
  activity at 1 µM: -2.4%
168 GPCRs [15]; 1 uM
  activity at 1 µM: -0.9%
168 GPCRs [15]; 10 uM
  activity at 10 µM: -1.5%
168 GPCRs [16]; DRD3, Agonist mode, 10 uM
  activity at 10 µM: 2.3%
168 GPCRs [16]; DRD3, Agonist, 1 uM
  activity at 1 µM: 2.2%
168 GPCRs [17]; PTGER2, Agonist mode, 10 uM
  activity at 10 µM: -3.1%
168 GPCRs [17]; PTGER2, Agonist, 1 uM
  activity at 1 µM: -1.4%
168 GPCRs [18]; NPBWR1, Agonist mode, 10 uM
  activity at 10 µM: -1.9%
168 GPCRs [18]; NPBWR1, Agonist, 1 uM
  activity at 1 µM: 1.6%
168 GPCRs [19]; Agonist mode, 10 uM
  activity at 10 µM: -0.2%
168 GPCRs [19]; Agonist, 1 uM
  activity at 1 µM: -2.2%
168 GPCRs [20]; 1 uM
  activity at 1 µM: -6.7%
168 GPCRs [20]; 10 uM
  activity at 10 µM: -7.6%
168 GPCRs [21]; 1 uM
  activity at 1 µM: -0.1%
168 GPCRs [21]; 10 uM
  activity at 10 µM: 0.3%
168 GPCRs [22]; PTHR1, Agonist mode, 10 uM
  activity at 10 µM: 0.1%
168 GPCRs [22]; PTHR1, Agonist, 1 uM
  activity at 1 µM: 0%
168 GPCRs [23]; MCHR2, Agonist mode, 10 uM
  activity at 10 µM: -0.7%
168 GPCRs [23]; MCHR2, Agonist, 1 uM
  activity at 1 µM: -1.5%

Source: patent US12343326B2, “Psychoactive medicines and their use for treating psychiatric and neurological conditions and disorders” (Transcend Therapeutics, Inc., priority 2021, dated 2025)
